{"source": "patent US5849900A", "about": "“Inhibition of viruses by antisense oligomers capable of binding to polypurine rich tract of single-stranded RNA or RNA-DNA hybrids” (Max-Planck-Gesellschaft zur Forderung der Wissenschafter …, priority 1995, dated 1998)", "key": {"[1]": {"system": "pKJ2 RNA hybridized with 40-mer deoxyribonucleotide complementary to the PPT region; RNase H", "assay": "RNase H cleavage inhibition on pKJ2 RNA-DNA hybrid, phosphoimager quantitation (Example 3)", "assay_type": "biochemical, HIV-1", "settings": "for IC50: range of concentrations, FIG. 4, phosphoimager, read-out: concentration that inhibited the RNase H by 50%", "protocol": "In vitro transcribed, 5'end-labeled pKJ2 RNA of 134 nucleotides in length was hybridized with a 10-fold excess of a 40-mer deoxyribonucleotide complementary to the PPT region. Volkmann, et al., Biochimie, 1993, 75, 71-78. Hybridizations were carried out in 25 mM Tris-acetate buffer (pH 6.8) containing 50 mM NaCl, 10 mM β-mercapotoethanol and 0.4 mM spermine hydrochloride. The mixture was incubated for 3 minutes at 90° C., then cooled slowly to room temperature. For triplex-formation, 1 pmol hybrid substrate was incubated with either 10 or 100 pmol oligodeoxynucleotide overnight at 37° C. Finally, each sample was treated with 12 ng enzyme in 10 microliters RNase H-standard buffer (see Example 2) for 30 minutes at 37° C. RNase H cleavage reaction was stopped by incubation at 96° C. for 2 minutes. Samples were ethanol-precipitated and analyzed on 10% polyacrylamide-TEE-urea gel. The gel was visualized by autoradiography and analyzed with a phosphoimager (Molecular Dynamics). GT purine-pyrimidine mixed DNA oligonucleotides and RNA oligonucleotides were analyzed and compared with a 25-mer pyrimidine sequence in parallel (Seq ID No: 3) and antiparallel (Seq ID No: 42) orientation. To quantitate the effects of the oligonucleotides, the amounts of uncut RNA were determined. The oligonucleotides tested are listed below:\nOligonucleotides GT1, GT2, and GU1 were tested further at a range of concentrations. The concentrations of the remaining materials were as previously. The quantitative plots of phosphoimager results for GT1, GT2, and GU1 are depicted in FIG. 4. GT1 inhibited the RNase H by 50% at 5.0 μM, and GU1 inhibited 50% at 0.5 μM."}, "[2]": {"system": "PPT region of single-stranded RNA; RNase H", "assay": "Protection of single-stranded RNA from RNase H cleavage by chimeric oligonucleotides 5'-A-B-C-3' (Example 4)", "assay_type": "biochemical, HIV-1", "settings": "for oligonucleotide concentration that inhibited cleavage to 50%: 50-fold molar excess of the oligonucleotide over the template", "protocol": "Chimeric oligonucleotides of the basic formula 5'-A-B-C-3' were tested with single-stranded RNA in a two-strand system. […] (Personal communication.) Average protection from cleavage was about 50%.\nProtection from RNase H was monitored as above. Specifically, protection was monitored in vitro using RNA which was radioactively labeled at its 5'-end. Cleavage was analyzed on a sequencing gel. Cleavage within the PPT region of the RNA leads to a band of about 80 nucleotides. Protection from cleavage results in an uncleavaged full-length RNA. The amount of cleaved versus uncleaved RNA was monitored by phosphoimager."}, "RT": {"system": "RT", "assay": "Inhibition of the RT by TFO-A variants", "assay_type": "biochemical, HIV-1", "text": "Through these studies, it was learned that the two bulges are essential for protection of RNA and that the overhanging 5'- and 3'-ends can be shortened. Variances numbered 5037 (SEQ ID NO:26) and 5074 (SEQ ID NO:21) inhibited cleavage to 50% at 50-fold molar excess of the oligonucleotide over the template, i.e., about one μM oligonucleotide."}, "[3]": {"system": "PPT of HIV-1 viral RNA (pKJ2 RNA)", "assay": "cDNA elongation / premature termination of cDNA synthesis on single-stranded viral RNA (Example 1)", "assay_type": "biochemical", "settings": "antisense oligonucleotide hybridized with single-stranded HIV-1 RNA; HIV-1 RT", "protocol": "HIV-1 viral RNA was transcribed in vitro from a construct containing a T7 promoter along with the PPT, which consists of the sequence: AAAAGAAAAGGGGGGA (SEQ ID NO: 1) or […] (SEQ ID NO: 2) when extended within the 3' LTR and 2 non-purines are included. The viral RNA, corresponding to pKJ2, consisted of 134 nucleotides. A ^32 P end-labeled antisense oligonucleotide was hybridized with the RNA. The cDNA reaction products were analyzed on 10% polyacrylamide TEE-urea gels. Details of the procedure are as follows:\nTo the standard reaction mixture described in Example 2 below were added a 125 μM quantity of one of the ddNTPs and each of the other three dNTPS and 4 units of HIV-1RT. The reactions were started by the addition of approximately 3 pmol of hybrid RNA (low specific activity) and treated as described above. To check for cDNA elongation, the same test was carried out, except with unlabeled in vitro transcribed RNA hybridized to a 10:1 mixture of unlabeled to labeled oligonucleotide. Aliquots were analyzed by electrophoresis on 10% TEE-urea-polyacrylamide gels.\nThe RNase H reaction was carried out in a total volume of 500 μL in RNase H buffer containing 1000 units of RNasin and 25 units of HIV-1RT/RNase H. After the reaction was started by the addition of 8 pmol of an unlabeled RNA-DNA oligonucleotide hybrid, the sample was divided into five aliquots of 100 μL and incubated for 30 minutes at 37° C., and the reaction was stopped at 95° C. for 5 minutes. The samples were placed on ice and to each was added 10 units of DNase I to remove the DNA oligonucleotide. After 10 minutes, the samples were incubated further at 37° C. for 10 minutes. The reactions were stopped at 95° C. for 10 minutes. […] Aliquots were analyzed by electrophoresis on an 8% TBE-urea-polyacrylamide gel together with dideoxy sequencing ladders generated with the same ^32 P-end-labeled DNA oligonucleotide primer on a single-stranded M13 DNA template harboring the corresponding DNA fragment. […]"}, "[4]": {"settings": "1 pmol hybrid with 10 or 100 pmol oligonucleotide"}}}
{"substance": "TTTTGTTTTGGGGGGTGTGGTTGGG (chemistry not given here) [TFO 1', 25-mer GT triplex-forming oligonucleotide]", "values": [{"measurement": "IC50", "setting": "[1]", "value": 5000, "unit": "nM"}]}
{"substance": "TFO F1: TFO F derivative that formed a pseudocircle due to a complementary tail (GCATGCCCTTTTCTTTTCCCCCCTTTTTTCCCCCCTTTTCTTTTCCGCATGC; forms pseudocircle through self-complementary tail, further chemistry not given here)", "values": [{"measurement": "inhibition of RNase H", "setting": "[2]", "value": "about 80%"}]}
{"substance": "5037: TFO-A variant, sequence shown only as drawing in Table 6 (TTTTCTTTTGGGGGGTTTGGTTGGGTTTTCCCTTCCAGTCCCCCCTTTTCTTTT; chemistry not given here) [compound 5037]", "values": [{"measurement": "oligonucleotide concentration that inhibited cleavage to 50%", "setting": "[2]", "value": "about one"}, {"measurement": "concentration at which ninety-five percent inhibition of the RT occurred", "setting": "RT", "value": "about 25 μM"}]}
{"substance": "AGGGGATTTGGTTGGGTTTTCCCTTCCAGTCCCCC (chemistry not given here) [compound 5074, TFO-A variant]", "values": [{"measurement": "oligonucleotide concentration that inhibited cleavage to 50%", "setting": "[2]", "value": "about one"}, {"measurement": "concentration at which ninety-five percent inhibition of the RT occurred", "setting": "RT", "value": "about 25 μM"}]}
{"substance": "UUUUGUUUUGGGGGGUGUGGUUGGG (chemistry not given here) [GU1, the RNA oligonucleotide tested]", "values": [{"measurement": "inhibition of RNase H", "setting": "[1]; [4]", "value": "~100", "unit": "%"}, {"measurement": "IC50", "setting": "[1]", "value": 500, "unit": "nM"}]}
{"substance": "CCGCCCAGGCCACGCCTCCC (chemistry not given here) [SEQ ID NO: 11, control antisense 20-mer outside the PPT region, reference compound]", "values": [{"measurement": "blocking of cDNA synthesis (inhibition of cDNA elongation)", "setting": "[3]", "value": "20-50%"}]}
{"substance": "TGAATTAGCCCTTCCAGTCCCCCCTTTTCTTTTAAAAAGT (chemistry not given here) [SEQ ID NO: 9, antisense 40-mer covering the PPT]", "values": [{"measurement": "blocking of cDNA synthesis (inhibition of cDNA elongation)", "setting": "[3]", "value": 100, "unit": "%"}]}
{"substance": "TTTTCTTTTGGGGGGTTTGGTTGGGTTTTCCCTTCCAGTCCCCCCTTTTCTTTT (chemistry not given here) [TFO A, 54-mer, partially self-complementary, hairpin-type stem-looped structure]", "values": [{"measurement": "inhibition of cleavage (in words)", "setting": "[2]; at concentrations less than one nanomolar, in vitro", "value": "completely inhibited cleavage"}]}
{"substance": "CCCTTCCAGTCCCCCCTTTTCTTTT (chemistry not given here) [PY2]", "values": [{"measurement": "inhibition of RNase H (degree, in words)", "setting": "[1]; [4]", "value": "lowest degree of inhibition"}]}
{"substance": "Us Us Us Us Cs Us Us Us Us Cs Cs Cs Cs Cs Cs Us TTTTTCCCCC TTTTCTTTT (UUUUCUUUUCCCCCCUTTTTTCCCCCCTTTTCTTTT; phosphorothioate backbone, chemistry not fully specified) [Rs RD]", "values": [{"measurement": "protection from cleavage", "setting": "[2]; at equimolar concentration", "value": "One hundred percent"}, {"measurement": "inhibition (protection from RNase H)", "setting": "[2]; at the same concentration as the phosphodiester", "value": 100, "unit": "%"}]}
{"substance": "AGTCCCCCCTTTTCTTTTAA (chemistry not given here) [SEQ ID NO: 10, antisense 20-mer covering the PPT]", "values": [{"measurement": "blocking of cDNA synthesis (inhibition of cDNA elongation)", "setting": "[3]", "value": 100, "unit": "%"}]}
